Consider 22 compounds from patent US10160747B2, “Compounds and methods for kinase modulation, and indications therefor” (Plexxikon Inc., priority 2016, dated 2018).

One experiment has as its target T1, FLT3-ITD (Homo sapiens, UniProt P36888).
T1 sequence (P36888 1-993): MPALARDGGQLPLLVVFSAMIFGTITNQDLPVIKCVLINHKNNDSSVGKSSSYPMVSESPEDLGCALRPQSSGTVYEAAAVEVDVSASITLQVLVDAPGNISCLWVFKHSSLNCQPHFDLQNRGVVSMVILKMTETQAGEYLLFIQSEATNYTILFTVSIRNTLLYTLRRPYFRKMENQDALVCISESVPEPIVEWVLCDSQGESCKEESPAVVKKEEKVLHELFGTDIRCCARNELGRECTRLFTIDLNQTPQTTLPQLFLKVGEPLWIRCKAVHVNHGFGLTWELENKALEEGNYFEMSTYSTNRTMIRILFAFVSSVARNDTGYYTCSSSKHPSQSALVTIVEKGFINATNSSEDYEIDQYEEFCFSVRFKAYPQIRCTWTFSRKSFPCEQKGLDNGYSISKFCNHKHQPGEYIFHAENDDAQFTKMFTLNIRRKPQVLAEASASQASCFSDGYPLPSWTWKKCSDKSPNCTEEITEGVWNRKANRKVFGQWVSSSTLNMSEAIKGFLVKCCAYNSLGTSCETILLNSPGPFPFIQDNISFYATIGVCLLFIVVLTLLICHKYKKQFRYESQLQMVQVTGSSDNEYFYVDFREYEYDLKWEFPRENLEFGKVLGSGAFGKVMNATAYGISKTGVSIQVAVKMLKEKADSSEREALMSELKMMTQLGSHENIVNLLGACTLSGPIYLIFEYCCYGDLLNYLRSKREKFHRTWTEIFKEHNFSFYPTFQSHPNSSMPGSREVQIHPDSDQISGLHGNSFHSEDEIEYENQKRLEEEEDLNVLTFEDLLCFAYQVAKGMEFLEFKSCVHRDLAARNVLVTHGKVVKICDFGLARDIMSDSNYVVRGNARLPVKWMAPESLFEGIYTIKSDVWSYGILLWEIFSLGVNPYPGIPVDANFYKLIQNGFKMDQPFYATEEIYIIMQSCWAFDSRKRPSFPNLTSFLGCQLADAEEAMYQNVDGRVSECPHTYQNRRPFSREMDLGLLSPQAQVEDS
Description: FLT3-ITD recombinant enzyme kinase assay (AlphaScreen). Type of experiment: biochemical. Particulars: 8 pt; read-out: FLT3_ITD 8 pt: IC50. The procedure, abridged:
(§1)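 IC50 values are derived from reduced AlphaScreen signal as inhibitors block tyrosine phosphorylation of a biotinylated poly(Glu4-Tyr) peptide (30 nM) by recombinant kinase. FLT3 variants are run at 10 μM ATP, c-KIT at 100 μM.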

Another experiment deals with T2, c-KIT (Homo sapiens, UniProt P10721).
T2 construct: purchased Millipore 14-559K
Description: c-KIT recombinant enzyme kinase assay (AlphaScreen). The class given is biochemical. Particulars: 100 ATP, 8 pt. The procedure, abridged: as §1

T2 sequence (P10721 26-976): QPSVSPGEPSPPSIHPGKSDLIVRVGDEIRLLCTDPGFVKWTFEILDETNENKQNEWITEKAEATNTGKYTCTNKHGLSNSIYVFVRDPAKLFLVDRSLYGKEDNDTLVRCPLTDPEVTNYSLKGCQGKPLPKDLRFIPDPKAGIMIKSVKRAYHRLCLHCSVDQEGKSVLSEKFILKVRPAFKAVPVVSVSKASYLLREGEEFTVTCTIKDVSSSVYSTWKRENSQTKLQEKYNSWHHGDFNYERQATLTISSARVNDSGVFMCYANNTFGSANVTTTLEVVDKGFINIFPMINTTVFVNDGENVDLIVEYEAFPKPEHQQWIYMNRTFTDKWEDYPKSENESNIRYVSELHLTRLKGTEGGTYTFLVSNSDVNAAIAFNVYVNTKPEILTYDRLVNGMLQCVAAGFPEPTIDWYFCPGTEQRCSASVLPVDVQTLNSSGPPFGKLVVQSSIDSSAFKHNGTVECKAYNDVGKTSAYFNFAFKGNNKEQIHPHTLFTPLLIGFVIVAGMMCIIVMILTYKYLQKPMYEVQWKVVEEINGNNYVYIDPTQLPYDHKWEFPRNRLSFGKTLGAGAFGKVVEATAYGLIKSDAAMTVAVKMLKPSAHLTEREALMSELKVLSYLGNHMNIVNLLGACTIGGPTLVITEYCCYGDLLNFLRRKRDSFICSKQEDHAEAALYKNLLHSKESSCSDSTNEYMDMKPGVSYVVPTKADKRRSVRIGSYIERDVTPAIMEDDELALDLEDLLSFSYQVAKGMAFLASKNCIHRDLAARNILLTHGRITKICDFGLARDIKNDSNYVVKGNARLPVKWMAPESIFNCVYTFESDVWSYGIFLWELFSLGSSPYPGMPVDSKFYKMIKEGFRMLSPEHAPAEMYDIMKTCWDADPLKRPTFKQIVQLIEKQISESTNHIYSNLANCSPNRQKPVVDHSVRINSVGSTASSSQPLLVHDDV

For the compound `CC(C)(C)c1ccc(NC(=O)Cc2ccc(-c3cnc4[nH]cc(F)c4c3)cc2F)cn1` [Compound P-0043, N-(6-tert-butyl-3-pyridyl)-2-[2-fluoro-4-(3-fluoro-1H-pyrrolo[2,3-b]pyridin-5-yl)phenyl]acetamide], the IC50 on FLT3-ITD and at c-KIT was 0.0001 to 10 µM in each case.
Turning to `O=C(Cc1ccc(-c2cnc3[nH]cc(F)c3c2)cc1F)Nc1cc(Cl)c(C2CC2)cn1` [Compound P-0044, N-(4-chloro-5-cyclopropyl-2-pyridyl)-2-[2-fluoro-4-(3-fluoro-1H-pyrrolo[2,3-b]pyridin-5-yl)phenyl]acetamide], the IC50 at FLT3-ITD and at c-KIT was 0.0001 to 10 µM each time.
`COc1ncc(NC(=O)Cc2ccc(-c3cnc4[nH]cc(Cl)c4n3)cc2F)cc1C(F)(F)F` [Compound P-0047, 2-[4-(7-chloro-5H-pyrrolo[2,3-b]pyrazin-2-yl)-2-fluoro-phenyl]-N-[6-methoxy-5-(trifluoromethyl)-3-pyridyl]acetamide]: the IC50 on FLT3-ITD and on c-KIT was 0.0001 to 10 µM in each case.
In the case of `COc1nn(C[C@H](C)O)cc1Nc1ncc(-c2ccc(CC(=O)Nc3cncc(C(F)(F)F)c3)c(F)c2)cn1` [Compound P-0050, 2-[2-fluoro-4-[2-[[1-[(2S)-2-hydroxypropyl]-3-methoxy-pyrazol-4-yl]amino]pyrimidin-5-yl]phenyl]-N-[5-(trifluoromethyl)-3-pyridyl]acetamide], the IC50 on FLT3-ITD and at c-KIT was 0.0001 to 10 µM throughout.
Take `COc1ncc(NC(=O)Cc2cc(F)c(-c3cnc4[nH]cc(F)c4c3)cc2F)cc1C(F)(F)F` [Compound P-0051, 2-[2,5-difluoro-4-(3-fluoro-1H-pyrrolo[2,3-b]pyridin-5-yl)phenyl]-N-[6-methoxy-5-(trifluoromethyl)-3-pyridyl]acetamide]: the IC50 at FLT3-ITD and at c-KIT was 0.0001 to 10 µM in each case.
On to `Cn1cnc(Nc2ncc(-c3ccc(CC(=O)Nc4cncc(C(F)(F)F)c4)c(F)c3)cn2)c1` [Compound P-0052, 2-[2-fluoro-4-[2-[(1-methylimidazol-4-yl)amino]pyrimidin-5-yl]phenyl]-N-[5-(trifluoromethyl)-3-pyridyl]acetamide], for which the IC50 on FLT3-ITD and at c-KIT was 0.0001 to 10 µM each time.
For the compound `O=C(Cc1ccc(-c2cnc3[nH]cc(F)c3c2)cc1F)Nc1cncc(C(F)(F)F)c1` [Compound P-0053, 2-[2-fluoro-4-(3-fluoro-1H-pyrrolo[2,3-b]pyridin-5-yl)phenyl]-N-[5-(trifluoromethyl)-3-pyridyl]acetamide], the IC50 on FLT3-ITD and at c-KIT was 0.0001 to 10 µM each time.
As for `CC(=O)c1c[nH]c2ncc(-c3ccc(CC(=O)Nc4cncc(C(F)(F)F)c4)c(F)c3)cc12` [Compound P-0055, 2-[4-(3-acetyl-1H-pyrrolo[2,3-b]pyridin-5-yl)-2-fluoro-phenyl]-N-[5-(trifluoromethyl)-3-pyridyl]acetamide], the IC50 on FLT3-ITD and at c-KIT was 0.0001 to 10 µM each time.
Consider `Cc1ncc(NC(=O)Cc2ccc(-c3cnc4c(c3)C3(CC3)C(=O)N4)cc2F)cc1C(F)(F)F` [Compound P-0057, 2-[2-fluoro-4-(2-oxospiro[1H-pyrrolo[2,3-b]pyridine-3,1′-cyclopropane]-5-yl)phenyl]-N-[6-methyl-5-(trifluoromethyl)-3-pyridyl]acetamide], for which the IC50 on FLT3-ITD and on c-KIT was 0.0001 to 10 µM each time.
`O=C(Cc1ccc(-c2cnc(Nc3cnn4ccccc34)nc2)cc1F)Nc1cncc(C(F)(F)F)c1` [Compound P-0058, 2-[2-fluoro-4-[2-(pyrazolo[1,5-a]pyridin-3-ylamino)pyrimidin-5-yl]phenyl]-N-[5-(trifluoromethyl)-3-pyridyl]acetamide]: the IC50 on FLT3-ITD and on c-KIT was 0.0001 to 10 µM each time.
As to `Cc1ncc(NC(=O)Cc2ccc(-c3cnc4[nH]cc(Cl)c4n3)cc2F)cc1C(F)(F)F` [Compound P-0059, 2-[4-(7-chloro-5H-pyrrolo[2,3-b]pyrazin-2-yl)-2-fluoro-phenyl]-N-[6-methyl-5-(trifluoromethyl)-3-pyridyl]acetamide], the IC50 on FLT3-ITD and at c-KIT was 0.0001 to 10 µM throughout.
With `O=C(Cc1ccc(-c2cnc3[nH]cc(Cl)c3n2)cc1F)Nc1cnc(Cl)c(C(F)(F)F)c1` [Compound P-0060, 2-[4-(7-chloro-5H-pyrrolo[2,3-b]pyrazin-2-yl)-2-fluoro-phenyl]-N-[6-chloro-5-(trifluoromethyl)-3-pyridyl]acetamide], the IC50 at FLT3-ITD and at c-KIT was 0.0001 to 10 µM in each case.
Take `O=C(Cc1ccc(-c2cnc3[nH]cc(Cl)c3n2)cc1F)Nc1cncc(C(F)(F)F)c1` [Compound P-0061, 2-[4-(7-chloro-5H-pyrrolo[2,3-b]pyrazin-2-yl)-2-fluoro-phenyl]-N-[5-(trifluoromethyl)-3-pyridyl]acetamide]: the IC50 at FLT3-ITD and at c-KIT was 0.0001 to 10 µM throughout.
For the compound `Cc1ncc(NC(=O)Cc2ccc(-c3cnc4[nH]cc(F)c4c3)cc2F)cc1C(F)(F)F` [Compound P-0062, 2-[2-fluoro-4-(3-fluoro-1H-pyrrolo[2,3-b]pyridin-5-yl)phenyl]-N-[6-methyl-5-(trifluoromethyl)-3-pyridyl]acetamide], the IC50 at FLT3-ITD and on c-KIT was 0.0001 to 10 µM each time.
On to `CC(=O)c1c[nH]c2ncc(-c3ccc(CC(=O)Nc4cnc(C)c(C(F)(F)F)c4)c(F)c3)cc12` [Compound P-0063, 2-[4-(3-acetyl-1H-pyrrolo[2,3-b]pyridin-5-yl)-2-fluoro-phenyl]-N-[6-methyl-5-(trifluoromethyl)-3-pyridyl]acetamide], for which the IC50 at FLT3-ITD and on c-KIT was 0.0001 to 10 µM in each case.
As to `O=C(Cc1ccc(-c2cnc3c(c2)C2(CC2)C(=O)N3)cc1F)Nc1cncc(C(F)(F)F)c1` [Compound P-0064, 2-(2-fluoro-4-(2′-oxo-1′,2′-dihydrospiro[cyclopropane-1,3′-pyrrolo[2,3-b]pyridin]-5′-yl)phenyl)-N-(5-(trifluoromethyl)pyridin-3-yl)acetamide], the IC50 at FLT3-ITD and at c-KIT was 0.0001 to 10 µM each time.
Regarding `Cc1ncc(NC(=O)Cc2ccc(-c3cnc(Nc4cnn5ccccc45)nc3)cc2F)cc1C(F)(F)F` [Compound P-0065, 2-(2-fluoro-4-(2-(pyrazolo[1,5-a]pyridin-3-ylamino)pyrimidin-5-yl)phenyl)-N-(6-methyl-5-(trifluoromethyl)pyridin-3-yl)acetamide], the IC50 at FLT3-ITD and on c-KIT was 0.0001 to 10 µM in each case.
Consider `Cc1ncc(NC(=O)Cc2ccc(-c3cnc4[nH]nc(C5CC5)c4c3)cc2F)cc1C(F)(F)F` [Compound P-0066, 2-(4-(3-cyclopropyl-1H-pyrazolo[3,4-b]pyridin-5-yl)-2-fluorophenyl)-N-(6-methyl-5-(trifluoromethyl)pyridin-3-yl)acetamide], for which the IC50 at FLT3-ITD and at c-KIT was 0.0001 to 10 µM throughout.
Consider `Cc1ncc(NC(=O)Cc2ccc(-c3cnc4[nH]c(Cl)cc4c3)cc2F)cc1C(F)(F)F` [Compound P-0067, 2-[4-(2-chloro-1H-pyrrolo[2,3-b]pyridin-5-yl)-2-fluoro-phenyl]-N-[6-methyl-5-(trifluoromethyl)-3-pyridyl]acetamide], for which the IC50 at FLT3-ITD and on c-KIT was 0.0001 to 10 µM throughout.
As to `CCC(=O)c1c[nH]c2ncc(-c3ccc(CC(=O)Nc4cncc(C(F)(F)F)c4)c(F)c3)cc12` [Compound P-0068, 2-[2-fluoro-4-(3-propanoyl-1H-pyrrolo[2,3-b]pyridin-5-yl)phenyl]-N-[5-(trifluoromethyl)-3-pyridyl]acetamide], the IC50 at FLT3-ITD and on c-KIT was 0.0001 to 10 µM throughout.
Turning to `CCC(=O)c1c[nH]c2ncc(-c3ccc(CC(=O)Nc4cnc(C)c(C(F)(F)F)c4)c(F)c3)cc12` [Compound P-0070, 2-[2-fluoro-4-(3-propanoyl-1H-pyrrolo[2,3-b]pyridin-5-yl)phenyl]-N-[6-methyl-5-(trifluoromethyl)-3-pyridyl]acetamide], the IC50 on FLT3-ITD and on c-KIT was 0.0001 to 10 µM each time.
As to `O=C(Cc1ccc(-c2cnc(Nc3cnn4ccccc34)nc2)c(F)c1)Nc1cncc(C(F)(F)F)c1` [Compound P-0071, 2-[3-fluoro-4-[2-(pyrazolo[1,5-a]pyridin-3-ylamino)pyrimidin-5-yl]phenyl]-N-[5-(trifluoromethyl)-3-pyridyl]acetamide], the IC50 on FLT3-ITD and at c-KIT was 0.0001 to 10 µM throughout.
